IC50 data for 38 compounds are collected here from US9221809B2 (MERCK SHARP & DOHME CORP., priority 2011, dated 2015).

The IC50 is the concentration that inhibits the measured activity by half.

Sequence of IRAK4 (Q9NWZ3 whole entry): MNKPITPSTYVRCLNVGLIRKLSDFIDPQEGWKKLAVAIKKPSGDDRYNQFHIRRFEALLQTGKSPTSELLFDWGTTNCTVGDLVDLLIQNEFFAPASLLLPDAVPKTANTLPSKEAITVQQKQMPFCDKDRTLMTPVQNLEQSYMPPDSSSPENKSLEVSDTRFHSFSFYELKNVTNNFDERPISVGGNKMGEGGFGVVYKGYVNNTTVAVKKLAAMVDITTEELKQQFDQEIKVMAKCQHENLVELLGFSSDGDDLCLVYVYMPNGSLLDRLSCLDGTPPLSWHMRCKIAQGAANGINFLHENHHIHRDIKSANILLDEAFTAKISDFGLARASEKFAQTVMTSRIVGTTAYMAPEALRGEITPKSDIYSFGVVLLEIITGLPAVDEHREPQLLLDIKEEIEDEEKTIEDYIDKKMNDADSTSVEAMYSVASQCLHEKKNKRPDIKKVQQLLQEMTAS

The target in one assay is IRAK4 (Homo sapiens (Human), UniProt Q9NWZ3). The assay can be described thus: IRAK4 kinase activity, IMAP fluorescence polarization assay. Format: biochemical. The conditions noted are these: 100 μM ATP; read-out: IC50. The procedure, abridged:
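GST-tagged IRAK4 at 0.5 nM phosphorylates 100 nM fluorescent peptide substrate with 100 μM ATP in pH 7.2 Tris buffer containing MgCl2, DTT and Tween 20, 30 min at 25 °C. Reaction stopped with IMAP binding reagent; phosphorylation read as increased fluorescence polarization.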
For orientation: In fluorescence polarisation assays a small probe gives low polarisation when free and higher when bound to something large.
Regarding `O=c1[nH]c(N2CCOCC2)nc(NC2CN3CCC2CC3)c1-c1nc2ccccc2s1` (centres unmarked) [Example 208, 5-(benzo[d]thiazol-2-yl)-2-morpholino-6-(quinolidin-3-ylamino)pyrimidin-4(3H)-one], the IC50 was 50 nM.

The same assay, now with this note: 100 μM ATP; read-out: IRAK4 IC50.
`CC1(O)CN(c2nc(N[C@@H]3CCCNC3)c(-c3ccc4ccccc4n3)c(=O)[nH]2)C1` [Example 171, (R)-2-(3-hydroxy-3-methylazetidin-1-yl)-6-(piperidin-3-ylamino)-5-(quinolin-2-yl)pyrimidin-4(3H)-one]: the IC50 amounted to 3150 nM.

For the compound `CC(C)(O)C1CN(c2nc(N[C@@H]3CCCNC3)c(-c3ccc4ccccc4n3)c(=O)[nH]2)C1` [Example 172, (R)-2-(3-(2-hydroxypropan-2-yl)azetidin-1-yl)-6-(piperidin-3-ylamino)-5-(quinolin-2-yl)pyrimidin-4(3H)-one], the IC50 came to 42 nM.

As for `CO[C@H]1CN(c2nc(N[C@@H]3CCCNC3)c(-c3ccc4ccccc4n3)c(=O)[nH]2)C[C@@H]1O` [Example 173, 2-((3S,4S)-3-hydroxy-4-methoxypyrrolidin-1-yl)-6-((R)-piperidin-3-ylamino)-5-(quinolin-2-yl)pyrimidin-4(3H)-one], the IC50 was 40 nM.

For the compound `O=c1[nH]c(N2CC3CC2CS(=O)(=O)C3)nc(N[C@@H]2CCCNC2)c1-c1ccc2ccccc2n1` (stereo partly drawn) [Example 174, 2-(3,3-dioxido-3-thia-6-azabicyclo[3.2.1]octan-6-yl)-6-((R)-piperidin-3-ylamino)-5-(quinolin-2-yl)pyrimidin-4(3H)-one], the IC50 turned out to be 139 nM.

Regarding `O=c1[nH]c(N2C[C@H](F)[C@@H](F)C2)nc(N[C@@H]2CCCNC2)c1-c1ccc2ccccc2n1` [Example 175, 2-((3S,4S)-3,4-difluoropyrrolidin-1-yl)-6-((R)-piperidin-3-ylamino)-5-(quinolin-2-yl)pyrimidin-4(3H)-one], the IC50 amounted to 17 nM.

As for `COC1(C)CN(c2nc(N[C@@H]3CCCNC3)c(-c3ccc4ccccc4n3)c(=O)[nH]2)C1` [Example 176, (R)-2-(3-methoxy-3-methylazetidin-1-yl)-6-(piperidin-3-ylamino)-5-(quinolin-2-yl)pyrimidin-4(3H)-one], the IC50 is 22 nM.

On to `O=c1[nH]c(N2CC[C@H](F)C2)nc(N[C@@H]2CCCNC2)c1-c1ccc2ccccc2n1` [Example 177, 2-((S)-3-fluoropyrrolidin-1-yl)-6-((R)-piperidin-3-ylamino)-5-(quinolin-2-yl)pyrimidin-4(3H)-one], for which the IC50 is 13 nM.

`CO[C@H]1CCN(c2nc(N[C@@H]3CCCNC3)c(-c3ccc4ccccc4n3)c(=O)[nH]2)C1` [Example 178, 2-((S)-3-methoxypyrrolidin-1-yl)-6-((R)-piperidin-3-ylamino)-5-(quinolin-2-yl)pyrimidin-4(3H)-one]: the IC50 turned out to be 35 nM.

As for `O=c1[nH]c(N2CC[C@@H](CO)C2)nc(N[C@@H]2CCCNC2)c1-c1ccc2ccccc2n1` [Example 179, 2-((R)-3-(hydroxymethyl)pyrrolidin-1-yl)-6-((R)-piperidin-3-ylamino)-5-(quinolin-2-yl)pyrimidin-4(3H)-one], the IC50 was found to be 13 nM.

`O=c1[nH]c(N2CC[C@H](CO)C2)nc(N[C@@H]2CCCNC2)c1-c1ccc2ccccc2n1` [Example 180, 2-((S)-3-(hydroxymethyl)pyrrolidin-1-yl)-6-((R)-piperidin-3-ylamino)-5-(quinolin-2-yl)pyrimidin-4(3H)-one]: the IC50 was 15 nM.

Take `CC1(O)CCN(c2nc(N[C@@H]3CCCNC3)c(-c3ccc4ccccc4n3)c(=O)[nH]2)C1` (stereo partly drawn) [Example 181, 2-(3-hydroxy-3-methylpyrrolidin-1-yl)-6-((R)-piperidin-3-ylamino)-5-(quinolin-2-yl)pyrimidin-4(3H)-one]: the IC50 worked out at 31 nM.

Turning to `O=c1[nH]c(N2CCCC2c2ccncc2)nc(N[C@@H]2CCCNC2)c1-c1ccc2ccccc2n1` (stereo partly drawn) [Example 182, 6-((R)-piperidin-3-ylamino)-2-(2-(pyridin-4-yl)pyrrolidin-1-yl)-5-(quinolin-2-yl)pyrimidin-4(3H)-one], the IC50 was determined as 3180 nM.

As for `O=c1[nH]c(N2CCC[C@H]2CF)nc(N[C@@H]2CCCNC2)c1-c1ccc2ccccc2n1` [Example 183, 2-((S)-2-(fluoromethyl)pyrrolidin-1-yl)-6-((R)-piperidin-3-ylamino)-5-(quinolin-2-yl)pyrimidin-4(3H)-one], the IC50 came out at 85 nM.

In the case of `CC(C)(O)C1CCN(c2nc(N[C@@H]3CCCNC3)c(-c3ccc4ccccc4n3)c(=O)[nH]2)C1` (stereo partly drawn) [Example 184, 2-(3-(2-hydroxypropan-2-yl)pyrrolidin-1-yl)-6-((R)-piperidin-3-ylamino)-5-(quinolin-2-yl)pyrimidin-4(3H)-one], the IC50 was determined as 42 nM.

Take `CN1CCC2CCN(c3nc(N[C@@H]4CCCNC4)c(-c4ccc5ccccc5n4)c(=O)[nH]3)C2C1` (stereo partly drawn) [Example 185, 2-(6-methyloctahydro-1H-pyrrolo[2,3-c]pyridin-1-yl)-6-((R)-piperidin-3-ylamino)-5-(quinolin-2-yl)pyrimidin-4(3H)-one]: the IC50 is 851 nM.

In the case of `COC1CCN(c2nc(N[C@@H]3CCCNC3)c(-c3ccc4ccccc4n3)c(=O)[nH]2)C1` (stereo partly drawn) [Example 186, 2-(3-methoxypyrrolidin-1-yl)-6-((R)-piperidin-3-ylamino)-5-(quinolin-2-yl)pyrimidin-4(3H)-one], the IC50 is 26 nM.

On to `O=c1[nH]c(N2CCC(c3ccccc3)CC2)nc(N[C@@H]2CCCNC2)c1-c1ccc2ccccc2n1` [Example 187, (R)-2-(4-phenylpiperidin-1-yl)-6-(piperidin-3-ylamino)-5-(quinolin-2-yl)pyrimidin-4(3H)-one], for which the IC50 came out at 16 nM.

With `Cc1ccccc1C1CCN(c2nc(N[C@@H]3CCCNC3)c(-c3ccc4ccccc4n3)c(=O)[nH]2)CC1` [Example 188, (R)-6-(piperidin-3-ylamino)-5-(quinolin-2-yl)-2-(4-(o-tolyl)piperidin-1-yl)pyrimidin-4(3H)-one], the 50% inhibitory concentration (IC50) turned out to be 17 nM.

On to `COc1ccccc1C1CCN(c2nc(N[C@@H]3CCCNC3)c(-c3ccc4ccccc4n3)c(=O)[nH]2)CC1` [Example 189, (R)-2-(4-(2-methoxyphenyl)piperidin-1-yl)-6-(piperidin-3-ylamino)-5-(quinolin-2-yl)pyrimidin-4(3H)-one], for which the IC50 was 13 nM.

In the case of `O=c1[nH]c(N2CCC(c3ccccc3C(F)(F)F)CC2)nc(N[C@@H]2CCCNC2)c1-c1ccc2ccccc2n1` [Example 190, (R)-6-(piperidin-3-ylamino)-5-(quinolin-2-yl)-2-(4-(2-(trifluoromethyl)phenyl)piperidin-1-yl)pyrimidin-4(3H)-one], the IC50 was found to be 32 nM.

Regarding `Cc1nsc(C2CCN(c3nc(N[C@@H]4CCCNC4)c(-c4ccc5ccccc5n4)c(=O)[nH]3)CC2)n1` [Example 191, (R)-2-(4-(3-methyl-1,2,4-thiadiazol-5-yl)piperidin-1-yl)-6-(piperidin-3-ylamino)-5-(quinolin-2-yl)pyrimidin-4(3H)-one], the IC50 is 138 nM.

As to `Cc1cc(C2CCN(c3nc(N[C@@H]4CCCNC4)c(-c4ccc5ccccc5n4)c(=O)[nH]3)CC2)[nH]n1` [Example 192, (R)-2-(4-(3-methyl-1H-pyrazol-5-yl)piperidin-1-yl)-6-(piperidin-3-ylamino)-5-(quinolin-2-yl)pyrimidin-4(3H)-one], the IC50 was 66 nM.

On to `O=c1[nH]c(N2CCC(c3cccc(F)n3)CC2)nc(N[C@@H]2CCCNC2)c1-c1ccc2ccccc2n1` [Example 193, (R)-2-(4-(6-fluoropyridin-2-yl)piperidin-1-yl)-6-(piperidin-3-ylamino)-5-(quinolin-2-yl)pyrimidin-4(3H)-one], for which the IC50 worked out at 45 nM.

For `O=c1[nH]c(N2CC3CC2CN3)nc(N[C@@H]2CCCNC2)c1-c1ccc2ccccc2n1` (stereo partly drawn) [Example 194, 2-(2,5-diazabicyclo[2.2.1]heptan-2-yl)-6-((R)-piperidin-3-ylamino)-5-(quinolin-2-yl)pyrimidin-4(3H)-one], the IC50 is 169 nM.

Consider `COc1ccc(N2CC3CC2CN3c2nc(N[C@@H]3CCCNC3)c(-c3ccc4ccccc4n3)c(=O)[nH]2)cc1` (stereo partly drawn) [Example 195, 2-(5-(4-methoxyphenyl)-2,5-diazabicyclo[2.2.1]heptan-2-yl)-6-((R)-piperidin-3-ylamino)-5-(quinolin-2-yl)pyrimidin-4(3H)-one], for which the IC50 was determined as 757 nM.

On to `O=c1[nH]c(N2CCOCC2)nc(N[C@@H]2CCCNC2)c1-c1nc2ccccc2o1` [Example 196], for which the IC50 turned out to be 1800 nM.

For `CC(C)(C)c1cccc(-c2c(N[C@@H]3CCCNC3)nc(N3CCOCC3)[nH]c2=O)n1` [Example 197], the IC50 came to 537 nM.

For the compound `O=c1[nH]c(N2CCOCC2)nc(N[C@@H]2CCCNC2)c1-c1cncc(-n2cccc2)n1` [Example 198], the IC50 was 3460 nM.

`O=c1[nH]c(N2CCOCC2)nc(N[C@@H]2CCCNC2)c1-c1ccccn1` [Example 199]: the IC50 amounted to 4760 nM.

With `O=c1[nH]c(N2CCOCC2)nc(N[C@@H]2CCCNC2)c1-c1nc(-c2cccc(C(F)(F)F)c2)cs1` [Example 200], the IC50 was 141 nM.

`O=c1[nH]c(N2CCOCC2)nc(N[C@@H]2CCCNC2)c1-c1nc(-c2ccccc2F)cs1` [Example 201]: the IC50 turned out to be 60 nM.

Turning to `O=c1[nH]c(N2CCOCC2)nc(N[C@@H]2CCCNC2)c1-c1nc(-c2ccc(Cl)cc2)cs1` [Example 202], the IC50 worked out at 153 nM.

Consider `O=c1[nH]c(N2CCOCC2)nc(N[C@@H]2CCCNC2)c1-c1nc(-c2cc(F)cc(F)c2)cs1` [Example 203], for which the IC50 worked out at 99 nM.

With `O=c1[nH]c(N2CCOCC2)nc(N[C@@H]2CCCNC2)c1-c1nc(-c2cccc(F)c2)cs1` [Example 204], the IC50 amounted to 40 nM.

As for `O=c1[nH]c(N2CCOCC2)nc(N[C@@H]2CCCNC2)c1-c1nc(-c2cc(F)ccc2F)cs1` [Example 205], the IC50 turned out to be 90 nM.

In the case of `O=c1[nH]c(N2CCOCC2)nc(N[C@@H]2CCCNC2)c1-c1nc(-c2ccc(C(F)(F)F)cn2)cs1` [Example 206], the IC50 stood at 2400 nM.

Take `O=c1[nH]c(N2CCOCC2)nc(N[C@@H]2CCCNC2)c1-c1nc(-c2ccccn2)cs1` [Example 207]: the IC50 turned out to be 21 nM.
